The record followed here is US10683483B2, “Microfabricated platform for mimicking the liver zonation and evaluating method of zonal toxicity using thereof” (Korea Research Institute of Chemical Technology, priority 2019, dated 2020).

In one data set the test system is liver tissue. Description: Hepatotoxicity in liver tissue of a rat model (H&E staining). Format: in vivo, Sprague Dawley rats. To be noted: oral, once a day for 3 days; acetaminophen 1,000 mg/kg, tamoxifen 60 mg/kg.
Data set [1] relates to HepaRG cells. Description: Hepatotoxicity evaluation by cell viability (cell counting kit-8) of pieces of the microfabricated platform for mimicking the liver zonation. To be noted: 48 hours; acetaminophen 12.5-200 mM, tamoxifen 31.2-500 μM; pieces along CHIR gradient. Format: cell-based. Here is the method: The 96-well plate was cultured at 37° C. for 48 hours. Upon completion of the reaction, cells were washed with PBS and the absorbance of the cells was measured using cell counting kit-8 (Dojindo Molecular Technologies) according to the manufacturer's protocol.
A general note: Tetrazolium dyes change colour on reduction, which living cells bring about.

For data set [2], the system named is HepaRG cells. The data set can be described thus: Hepatotoxicity evaluation by dead cell staining (EthD-1) in the microfabricated platform for mimicking the liver zonation. To be noted: 10 mM acetaminophen, 48 hours. Format: cell-based. The protocol: First, an impermeable fluorescent substance was formed in the inside of HepaRG cells by using cell tracker deep red fluorescent solution in order to trace the location of HepaRG cells. A microfabricated platform for mimicking the liver zonation was prepared by the same conditions and same manners as described in Example 1 by using the prepared HepaRG cells. […] As a control, a culture medium without acetaminophen was used. Upon completion of the culture, the medium was removed and the dead cells were stained with EthD-1 (ethidium homodimer-1).

From the text for liver tissue: After the administration, the animals were sacrificed, from which the liver tissues were obtained. The obtained liver tissues were stained with H&E, followed by observation under a microscope.

In the case of `CC(=O)Nc1ccc(O)cc1` [acetaminophen], the “liver histopathology by zone (H&E)” value in the data set with liver tissue is “increased mitosis (yellow triangle), necrosis (blue triangle) and inflammatory cell infiltration (green triangle) in the central vein of the liver (zone 3)”. The “zone-specific sensitivity of cell viability to drug induced toxicity” value with HepaRG cells [1] is given as “more sensitive to the acetaminophen induced toxicity”. Also, the “EthD-1 staining of dead cells (fluorescence intensity) by zone” value in the data set on HepaRG cells [2] is “high fluorescence intensity in those hepatocytes exposed to a relatively high concentration of CHIR”.
